Active and inactive are the calls of the source. The rule behind the calls is not given here.
Assays:
A549 = test: Cytotoxicity against human A549 cells assessed as inhibition of cell viability incubated for 24 hrs by MTT assay; type: functional, cell-based; conditions: A549, 24 h
[1] = Cytotoxicity against human HK-2 cells assessed as inhibition of cell viability incubated for 24 hrs by MTT assay; type: toxicity, cell-based
Huh-7 = test: Cytotoxicity against human Huh-7 cells assessed as inhibition of cell viability incubated for 24 hrs by MTT assay; type: functional, cell-based; conditions: Huh-7, 24 h
RAW264.7 = test: Inhibition of NO release in mouse RAW264.7 cells incubated for 24 hrs by Griess reagent based assay; type: functional, cell-based; conditions: RAW264.7, 24 h
[2] = Cytotoxicity against mouse RAW264.7 cells assessed as cell survival at 60 uM incubated for 24 hrs by MTT assay relative to control; type: toxicity, cell-based; conditions: read-out: Activity
[3] = Cytotoxicity against human WI-38 cells assessed as inhibition of cell viability incubated for 24 hrs by MTT assay; type: toxicity, cell-based
[4] = Cytotoxicity against rat H9c2 cells assessed as inhibition of cell viability incubated for 24 hrs by MTT assay; type: toxicity, cell-based
[5] = Cytotoxicity against mouse RAW264.7 cells assessed as cell survival at 30 uM incubated for 24 hrs by MTT assay relative to control; type: toxicity, cell-based; conditions: read-out: Activity
Mus musculus [6] = test: Anti-septic activity in C57BL/6 mouse model assessed as reversal of LPS-induced kidney injury at 30 mg/kg, ip qd treated for 7 days by H and E staining based analysis; type: functional, organism-based; conditions: time 7.0 day
Mus musculus [7] = test: Anti-septic activity in C57BL/6 mouse model assessed as reversal of LPS-induced disappearance of renal internal brush border structure at 30 mg/kg, ip qd treated for 7 days by H and E staining based analysis; type: functional, organism-based; conditions: time 7.0 day
Mus musculus [8] = test: Anti-septic activity in C57BL/6 mouse model assessed as reversal of LPS-induced damage of renal tubules at 15 to 30 mg/kg, ip qd treated for 7 days by H and E staining based analysis; type: functional, organism-based; conditions: dose 15-30 mg/kg, time 7.0 day
Mus musculus [9] = test: Anti-septic activity in C57BL/6 mouse model assessed as reversal of LPS-induced inflammatory cell infiltration in renal interstitium at 30 mg/kg, ip qd treated for 7 days by H and E staining based analysis; type: functional, organism-based; conditions: time 7.0 day
Mus musculus [10] = test: Anti-septic activity in C57BL/6 mouse model assessed as reversal of LPS-induced accumulation of interstitial vacoules in kidney at 30 mg/kg, ip qd treated for 7 days by H and E staining based analysis; type: functional, organism-based; conditions: time 7.0 day
Mus musculus [11] = test: Anti-septic activity in C57BL/6 mouse model assessed as reversal of LPS-induced inflammatory cell infiltration in renal interstitium at 15 mg/kg, ip qd treated for 7 days by H and E staining based analysis; type: functional, organism-based; conditions: time 7.0 day
Mus musculus [12] = test: Anti-septic activity in C57BL/6 mouse model assessed as reversal of LPS-induced kidney injury at 15 mg/kg, ip qd treated for 7 days by H and E staining based analysis; type: functional, organism-based; conditions: time 7.0 day

Compound	IC50 (A549)	IC50 at 24 h [1]	IC50 (Huh-7)	IC50 (RAW264.7)	viability at 24 h, 60 µM [2]	IC50 at 24 h [3]	IC50 at 24 h [4]	viability at 24 h, 30 µM [5]	Activity (Mus musculus [6])	Activity (Mus musculus [7])	Activity (Mus musculus [8])	Activity (Mus musculus [9])	Activity (Mus musculus [10])	Activity (Mus musculus [11])	Activity (Mus musculus [12])
CC(=O)OC[C@@H]1OC(n2cc(COC(=O)[C@@]3(C)CC[C@]4(C)CC[C@]5(C)C(=CC(=O)[C@@H]6[C@@]7(C)CC[C@H](OC(=O)CCc8ccccc8)C(C)(C)C7CC[C@]65C)[C@H]4C3)nn2)[C@@H](OC(C)=O)[C@H](OC(C)=O)[C@@H]1OC(C)=O (stereo partly specified)	93.4 µM	127 µM	86.2 µM	22.8 µM	< 70%	201 µM	114 µM	–	–	–	–	–	–	–	–
COC(=O)[C@@]1(C)CC[C@]2(C)CC[C@]3(C)C(=CC(=O)[C@@H]4[C@@]5(C)CC[C@H](OCc6cn(C7O[C@H](COC(C)=O)[C@H](OC(C)=O)[C@H](OC(C)=O)[C@H]7OC(C)=O)nn6)C(C)(C)C5CC[C@]43C)[C@H]2C1 (stereo partly specified)	39.4 µM	42.2 µM	28 µM	–	–	96.4 µM	92.4 µM	–	–	–	–	–	–	–	–
COC(=O)[C@@]1(C)CC[C@]2(C)CC[C@]3(C)C(=CC(=O)[C@@H]4[C@@]5(C)CC[C@H](OCc6cn(C7O[C@H](COC(C)=O)[C@@H](OC(C)=O)[C@H](OC(C)=O)[C@H]7OC(C)=O)nn6)C(C)(C)C5CC[C@]43C)[C@H]2C1 (stereo partly specified)	32.7 µM	56.1 µM	23.5 µM	–	–	105 µM	87.8 µM	–	–	–	–	–	–	–	–
COC(=O)[C@@]1(C)CC[C@]2(C)CC[C@]3(C)C(=CC(=O)[C@@H]4[C@@]5(C)CC[C@H](OCc6cn(C7O[C@H](COC(C)=O)[C@@H](OC(C)=O)[C@H](OC(C)=O)[C@@H]7OC(C)=O)nn6)C(C)(C)C5CC[C@]43C)[C@H]2C1 (stereo partly specified)	23.1 µM	57.2 µM	19.7 µM	–	–	89.4 µM	65.3 µM	–	–	–	–	–	–	–	–
CC(=O)O[C@H]1[C@H](C)OC(n2cc(COC(=O)[C@@]3(C)CC[C@]4(C)CC[C@]5(C)C(=CC(=O)[C@@H]6[C@@]7(C)CC[C@H](OC(=O)CCc8ccccc8)C(C)(C)C7CC[C@]65C)[C@H]4C3)nn2)C[C@@H]1OC(C)=O (stereo partly specified)	100 µM	> 800 µM	112 µM	30.8 µM	< 70%	> 800 µM	406 µM	> 70%	–	–	–	–	–	–	–
CC1(C)[C@@H](O[C@H]2O[C@H](C(=O)O)[C@@H](O)[C@H](O)[C@H]2O[C@@H]2O[C@H](C(=O)O)[C@@H](O)[C@H](O)[C@H]2O)CC[C@]2(C)[C@H]3C(=O)C=C4[C@@H]5C[C@@](C)(C(=O)O)CC[C@]5(C)CC[C@@]4(C)[C@]3(C)CC[C@@H]12 [GLYCYRRHIZIN]	80.3 µM	160 µM	65.7 µM	20.7 µM	–	128 µM	102 µM	> 70%	Active	Active	Active	Active	Active	inactive	inactive
COC(=O)[C@@]1(C)CC[C@]2(C)CC[C@]3(C)C(=CC(=O)[C@@H]4[C@@]5(C)CC[C@H](OCc6cn(C7O[C@H](COC(C)=O)[C@@H](OC(C)=O)[C@H]7OC(C)=O)nn6)C(C)(C)C5CC[C@]43C)[C@H]2C1 (stereo partly specified)	27.8 µM	59.7 µM	30.1 µM	–	–	93.9 µM	77 µM	–	–	–	–	–	–	–	–
CC(=O)OC[C@@H]1OC(n2cc(COC(=O)[C@@]3(C)CC[C@]4(C)CC[C@]5(C)C(=CC(=O)[C@@H]6[C@@]7(C)CC[C@H](OC(=O)CCc8ccccc8)C(C)(C)C7CC[C@]65C)[C@H]4C3)nn2)[C@H](OC(C)=O)[C@H](OC(C)=O)[C@@H]1OC(C)=O (stereo partly specified)	108 µM	> 800 µM	174 µM	40.8 µM	–	590 µM	> 800 µM	> 70%	–	–	–	–	–	–	–
CC(=O)OC[C@@H]1OC(n2cc(COC(=O)[C@@]3(C)CC[C@]4(C)CC[C@]5(C)C(=CC(=O)[C@@H]6[C@@]7(C)CC[C@H](OC(=O)CCc8ccccc8)C(C)(C)C7CC[C@]65C)[C@H]4C3)nn2)[C@@H](OC(C)=O)[C@H](OC(C)=O)[C@H]1OC(C)=O (stereo partly specified)	207 µM	398 µM	206 µM	30.7 µM	–	> 800 µM	294 µM	> 70%	–	–	–	–	–	–	–
CC(=O)OC[C@@H]1OC(n2cc(COC(=O)[C@@]3(C)CC[C@]4(C)CC[C@]5(C)C(=CC(=O)[C@@H]6[C@@]7(C)CC[C@H](OC(=O)CCc8ccccc8)C(C)(C)C7CC[C@]65C)[C@H]4C3)nn2)[C@@H](OC(C)=O)[C@H]1OC(C)=O (stereo partly specified)	92.8 µM	557 µM	91.3 µM	46.2 µM	< 70%	348 µM	330 µM	> 70%	–	–	–	–	–	–	–

Reference: ChEMBL document CHEMBL5625214, “Synthesis of glycyrrhizin analogues as HMGB1 inhibitors and their activity against sepsis in acute kidney injury” (Eur J Med Chem, 2023)
